From ChEMBL document CHEMBL1148343, “Fragment-based drug discovery” (J Med Chem, 2004)
pIC50, pKd, pKi: −log10 of the molar value.

Legend:
[1] = Dissociation constant against FK506 binding protein
[2] = biological target: Proto-oncogene tyrosine-protein kinase Src (Homo sapiens, UniProt P12931); experiment: Inhibition of c-Src tyrosine kinase
Stromelysin-1 [3] = biological target: T1, Stromelysin-1 (Homo sapiens, UniProt P08254); experiment: Dissociation constant for Matrix Metalloprotease-3 (MMP-3)
[4] = biological target: T2, Glycogen phosphorylase, liver form (Mus musculus, UniProt Q9ET01)
T2 sequence (Q9ET01 whole entry): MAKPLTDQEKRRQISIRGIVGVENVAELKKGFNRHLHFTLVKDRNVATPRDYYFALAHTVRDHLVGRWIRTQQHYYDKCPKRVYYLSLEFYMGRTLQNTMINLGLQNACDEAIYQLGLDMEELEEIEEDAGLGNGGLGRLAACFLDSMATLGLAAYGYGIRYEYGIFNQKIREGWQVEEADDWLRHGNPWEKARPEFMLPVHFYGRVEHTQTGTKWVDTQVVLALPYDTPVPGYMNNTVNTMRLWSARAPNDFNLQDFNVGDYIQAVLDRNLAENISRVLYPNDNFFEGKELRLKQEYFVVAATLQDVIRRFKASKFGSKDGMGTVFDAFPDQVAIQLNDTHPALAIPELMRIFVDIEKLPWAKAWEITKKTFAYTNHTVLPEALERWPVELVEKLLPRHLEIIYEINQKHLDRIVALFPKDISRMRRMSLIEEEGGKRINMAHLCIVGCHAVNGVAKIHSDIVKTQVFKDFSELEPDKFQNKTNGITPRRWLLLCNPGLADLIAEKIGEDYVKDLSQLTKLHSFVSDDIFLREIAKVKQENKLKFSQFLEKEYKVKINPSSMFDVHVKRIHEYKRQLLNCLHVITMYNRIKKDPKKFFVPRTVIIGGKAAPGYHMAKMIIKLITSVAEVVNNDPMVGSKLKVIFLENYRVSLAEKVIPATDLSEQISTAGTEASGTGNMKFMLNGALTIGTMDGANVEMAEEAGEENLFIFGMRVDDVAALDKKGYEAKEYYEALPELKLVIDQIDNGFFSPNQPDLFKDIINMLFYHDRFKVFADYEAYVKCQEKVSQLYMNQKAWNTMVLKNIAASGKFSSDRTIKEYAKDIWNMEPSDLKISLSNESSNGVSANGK
Description: Inhibitory concentration against glycogen phosphorylase

[5] = biological target: Mitogen-activated protein kinase 10 (Homo sapiens, UniProt P53779); experiment: Affinity for c-Jun N-terminal kinase 3
[6] = Inhibition of Interleukin-2 receptor
Human papillomavirus [7] = experiment: Inhibitory concentration against DNA-binding domain of the human papillomavirus protein E2; format: functional
[8] = Half life was determined; format: ADME; conditions: rat
[9] = biological target: Adenylosuccinate synthetase isozyme 2 (Homo sapiens, UniProt P30520)
Description: Inhibitory concentration against Adenylosuccinate synthetase

Acetylcholinesterase [10] = biological target: Acetylcholinesterase (Rattus norvegicus, UniProt P37136); experiment: Inhibitory concentration against Acetylcholinesterase in rat brain; format: tissue-based
Thymidylate synthase [11] = biological target: Thymidylate synthase (Homo sapiens, UniProt P04818); experiment: Tested for binding affinity towards thymidylate synthase
Bcl-2-like protein 1 = Bcl-2-like protein 1 (Homo sapiens, UniProt Q07817); experiment: Inhibitory concentration against B-Cell Lymphoma xL (Bcl-xL) Bak-peptide binding region; format: functional
[12] = Oral bioavailability was determined; Not orally available; format: ADME, organism-based; conditions: in vivo
[13] = Dissociation constant against Erythromycin-Resistance Methylase AM
[14] = biological target: Urokinase-type plasminogen activator (Homo sapiens, UniProt P00749)
Description: Binding affinity towards Urokinase-type plasminogen activator

Adenosine deaminase = Adenosine deaminase (Homo sapiens, UniProt P00813)
Description: Binding affinity towards adenosine deaminase

[15] = biological target: Matrix metalloproteinase-9 (Homo sapiens, UniProt P14780); experiment: Inhibition of gelatinase B, matrix metalloprotease-9 (MMP-9)
Collagenase 3 = Collagenase 3 (Homo sapiens, UniProt P45452); experiment: Inhibition of Matrix Metalloprotease-13 (MMP-13)
Interstitial collagenase = Interstitial collagenase (Homo sapiens, UniProt P03956)
Description: Inhibition of Matrix Metalloprotease-1 (MMP-1)

[16] = biological target: Neuraminidase (Influenza A virus (A/Puerto Rico/8/1934(H1N1)), UniProt P03468)
Description: Inhibition of influenza A viral enzyme neuraminidase

Human papillomavirus [17] = experiment: Dissociation constant against DNA-binding domain of the human papillomavirus protein E2; format: functional
[18] = Oral bioavailability; format: ADME, organism-based; conditions: eutheria, in vivo
Nucleic Acid = experiment: Dissociation constant towards Mutant U1061A RNA; format: nucleic-acid assay
Acetylcholinesterase [19] = biological target: Acetylcholinesterase (Mus musculus, UniProt P21836)
Description: Dissociation constant towards Acetylcholinesterase in mouse

Thymidylate synthase [20] = biological target: Thymidylate synthase (Lactobacillus casei, UniProt P00469)
Caspase-3 = Caspase-3 (Homo sapiens, UniProt P42574); experiment: Binding affinity against Caspase-3
[21] = Binding affinity against Erythromycin-Resistance Methylase AM
Stromelysin-1 [22] = biological target: T1, Stromelysin-1
Description: Inhibition of Matrix Metalloprotease-3 (MMP-3)

[23] = biological target: Cyclin-dependent kinase 2 (Homo sapiens, UniProt P24941); experiment: Inhibition of Cyclin-Dependent Kinase 2
[24] = biological target: Tyrosine-protein phosphatase non-receptor type 1 (Homo sapiens, UniProt P18031)
Description: Dissociation constant for Protein-tyrosine phosphatase 1B

[25] = biological target: Intercellular adhesion molecule (ICAM-1), Integrin alpha-L/beta-2 (Homo sapiens, UniProt P05107+P20701)
Description: Inhibition of Leukocyte function associated antigen 1 (LFA-1)

Chain of Proto-oncogene tyrosine-protein kinase Src (P12931 2-536 limits assumed): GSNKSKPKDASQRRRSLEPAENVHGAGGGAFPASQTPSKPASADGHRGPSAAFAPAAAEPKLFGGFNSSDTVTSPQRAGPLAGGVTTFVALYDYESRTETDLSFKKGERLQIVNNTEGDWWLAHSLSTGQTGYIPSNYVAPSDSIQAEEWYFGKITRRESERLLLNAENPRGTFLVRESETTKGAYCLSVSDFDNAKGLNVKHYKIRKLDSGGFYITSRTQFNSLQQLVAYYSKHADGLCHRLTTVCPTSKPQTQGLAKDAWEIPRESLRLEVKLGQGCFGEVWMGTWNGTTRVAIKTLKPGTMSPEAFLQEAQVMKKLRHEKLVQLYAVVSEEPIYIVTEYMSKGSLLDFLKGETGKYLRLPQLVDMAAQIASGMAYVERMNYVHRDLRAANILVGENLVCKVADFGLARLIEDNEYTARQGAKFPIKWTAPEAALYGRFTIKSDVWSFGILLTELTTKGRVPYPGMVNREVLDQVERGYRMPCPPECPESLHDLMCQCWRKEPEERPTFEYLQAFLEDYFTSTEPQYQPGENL
Chain of Neuraminidase (Influenza A virus (A/Puerto Rico/8/1934(H1N1)), UniProt P03468) (P03468 whole entry, the tested form may be a part): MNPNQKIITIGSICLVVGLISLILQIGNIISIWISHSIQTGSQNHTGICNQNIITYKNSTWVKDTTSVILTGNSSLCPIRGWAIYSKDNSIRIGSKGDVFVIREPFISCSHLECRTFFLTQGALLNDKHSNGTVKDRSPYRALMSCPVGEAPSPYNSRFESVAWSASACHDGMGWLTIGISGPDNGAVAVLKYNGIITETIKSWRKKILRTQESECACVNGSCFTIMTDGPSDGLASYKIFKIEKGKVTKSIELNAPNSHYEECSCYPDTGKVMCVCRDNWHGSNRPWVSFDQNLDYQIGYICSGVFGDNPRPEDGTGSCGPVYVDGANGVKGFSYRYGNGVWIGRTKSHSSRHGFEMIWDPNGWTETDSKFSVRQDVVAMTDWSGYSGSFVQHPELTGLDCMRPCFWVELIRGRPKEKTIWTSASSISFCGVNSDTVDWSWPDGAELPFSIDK
Chain of Adenylosuccinate synthetase isozyme 2 (P30520 whole entry): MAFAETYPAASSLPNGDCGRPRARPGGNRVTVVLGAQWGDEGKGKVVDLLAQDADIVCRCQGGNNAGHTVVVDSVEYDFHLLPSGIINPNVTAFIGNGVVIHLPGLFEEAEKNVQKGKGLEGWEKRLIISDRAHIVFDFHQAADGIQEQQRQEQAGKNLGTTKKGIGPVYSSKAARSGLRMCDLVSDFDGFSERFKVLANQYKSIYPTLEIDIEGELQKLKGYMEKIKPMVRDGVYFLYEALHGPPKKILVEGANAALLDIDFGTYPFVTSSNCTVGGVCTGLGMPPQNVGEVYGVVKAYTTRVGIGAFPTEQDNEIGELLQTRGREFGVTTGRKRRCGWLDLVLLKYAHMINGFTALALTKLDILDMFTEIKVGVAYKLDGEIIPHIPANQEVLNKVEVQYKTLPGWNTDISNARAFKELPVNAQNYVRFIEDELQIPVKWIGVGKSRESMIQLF
T1 sequence (P08254 whole entry): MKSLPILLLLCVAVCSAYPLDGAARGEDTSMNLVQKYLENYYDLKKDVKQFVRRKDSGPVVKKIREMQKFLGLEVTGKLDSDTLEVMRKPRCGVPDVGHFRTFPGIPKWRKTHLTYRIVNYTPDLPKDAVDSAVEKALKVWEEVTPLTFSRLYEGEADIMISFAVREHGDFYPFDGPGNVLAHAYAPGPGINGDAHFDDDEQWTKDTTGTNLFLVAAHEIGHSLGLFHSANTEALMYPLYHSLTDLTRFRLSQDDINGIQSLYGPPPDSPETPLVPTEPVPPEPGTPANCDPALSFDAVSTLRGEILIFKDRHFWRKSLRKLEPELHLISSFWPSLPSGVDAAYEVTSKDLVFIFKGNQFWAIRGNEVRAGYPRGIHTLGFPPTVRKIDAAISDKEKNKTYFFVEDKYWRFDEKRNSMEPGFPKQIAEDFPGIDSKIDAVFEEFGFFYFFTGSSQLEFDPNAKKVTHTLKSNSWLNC
Chain of Bcl-2-like protein 1 (Q07817 whole entry): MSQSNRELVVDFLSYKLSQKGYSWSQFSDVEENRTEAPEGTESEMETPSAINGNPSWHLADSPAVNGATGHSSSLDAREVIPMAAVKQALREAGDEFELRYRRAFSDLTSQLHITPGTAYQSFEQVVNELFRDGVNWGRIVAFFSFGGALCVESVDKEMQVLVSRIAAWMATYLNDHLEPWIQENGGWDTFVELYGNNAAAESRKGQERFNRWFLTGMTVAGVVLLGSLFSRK
Chain of Acetylcholinesterase (Rattus norvegicus, UniProt P37136) (P37136 whole entry): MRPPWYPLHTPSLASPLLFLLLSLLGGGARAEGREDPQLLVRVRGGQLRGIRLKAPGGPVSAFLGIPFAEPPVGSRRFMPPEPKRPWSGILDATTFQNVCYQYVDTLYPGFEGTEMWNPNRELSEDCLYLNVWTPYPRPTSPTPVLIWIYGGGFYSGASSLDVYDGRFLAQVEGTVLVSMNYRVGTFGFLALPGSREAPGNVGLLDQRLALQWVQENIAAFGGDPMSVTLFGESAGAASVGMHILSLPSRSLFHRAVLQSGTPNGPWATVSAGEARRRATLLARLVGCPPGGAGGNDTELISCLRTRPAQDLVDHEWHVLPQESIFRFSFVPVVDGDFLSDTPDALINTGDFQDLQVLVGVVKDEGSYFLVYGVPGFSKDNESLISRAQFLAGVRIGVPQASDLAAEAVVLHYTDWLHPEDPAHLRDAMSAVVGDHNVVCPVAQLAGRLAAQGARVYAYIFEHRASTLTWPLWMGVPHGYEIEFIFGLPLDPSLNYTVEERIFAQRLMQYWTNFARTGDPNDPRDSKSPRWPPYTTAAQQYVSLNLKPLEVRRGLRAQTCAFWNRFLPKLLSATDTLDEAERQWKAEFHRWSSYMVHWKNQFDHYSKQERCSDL
Chain of Mitogen-activated protein kinase 10 (P53779 whole entry): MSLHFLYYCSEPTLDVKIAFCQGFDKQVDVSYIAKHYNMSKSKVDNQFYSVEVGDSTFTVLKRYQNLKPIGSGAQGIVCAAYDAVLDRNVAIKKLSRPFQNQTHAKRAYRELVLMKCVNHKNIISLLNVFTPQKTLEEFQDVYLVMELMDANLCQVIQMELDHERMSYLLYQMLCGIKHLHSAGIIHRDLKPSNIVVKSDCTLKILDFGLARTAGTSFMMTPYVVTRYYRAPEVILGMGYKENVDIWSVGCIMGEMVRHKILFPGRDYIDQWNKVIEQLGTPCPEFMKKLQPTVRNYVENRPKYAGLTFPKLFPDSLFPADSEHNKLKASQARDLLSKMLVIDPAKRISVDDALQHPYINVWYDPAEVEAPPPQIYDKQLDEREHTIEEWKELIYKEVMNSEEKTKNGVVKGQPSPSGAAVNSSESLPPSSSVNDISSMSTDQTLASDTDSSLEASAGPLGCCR
Chain of Thymidylate synthase (Lactobacillus casei, UniProt P00469) (P00469 whole entry): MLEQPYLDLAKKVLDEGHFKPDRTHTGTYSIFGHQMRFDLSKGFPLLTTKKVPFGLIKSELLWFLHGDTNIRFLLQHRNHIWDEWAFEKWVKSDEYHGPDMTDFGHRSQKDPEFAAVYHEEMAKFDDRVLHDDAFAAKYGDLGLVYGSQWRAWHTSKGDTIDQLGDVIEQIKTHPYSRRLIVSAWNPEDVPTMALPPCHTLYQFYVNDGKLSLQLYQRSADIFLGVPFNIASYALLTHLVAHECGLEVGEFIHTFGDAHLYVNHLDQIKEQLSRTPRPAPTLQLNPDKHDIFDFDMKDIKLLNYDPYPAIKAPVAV
Chain of Interstitial collagenase (P03956 whole entry): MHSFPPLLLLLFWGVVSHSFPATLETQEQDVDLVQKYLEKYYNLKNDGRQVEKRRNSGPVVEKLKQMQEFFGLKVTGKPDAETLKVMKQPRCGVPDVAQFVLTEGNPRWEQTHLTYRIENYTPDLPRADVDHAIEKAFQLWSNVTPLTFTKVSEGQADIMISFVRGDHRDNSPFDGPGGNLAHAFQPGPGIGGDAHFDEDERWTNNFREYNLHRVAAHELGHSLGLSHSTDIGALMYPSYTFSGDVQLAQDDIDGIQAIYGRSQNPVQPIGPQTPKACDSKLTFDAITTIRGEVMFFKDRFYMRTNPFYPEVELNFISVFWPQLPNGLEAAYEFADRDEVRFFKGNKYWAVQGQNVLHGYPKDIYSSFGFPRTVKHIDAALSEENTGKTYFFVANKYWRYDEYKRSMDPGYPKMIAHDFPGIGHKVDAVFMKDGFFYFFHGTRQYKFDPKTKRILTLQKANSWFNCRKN
Chain of Caspase-3 (P42574 29-175 limits assumed): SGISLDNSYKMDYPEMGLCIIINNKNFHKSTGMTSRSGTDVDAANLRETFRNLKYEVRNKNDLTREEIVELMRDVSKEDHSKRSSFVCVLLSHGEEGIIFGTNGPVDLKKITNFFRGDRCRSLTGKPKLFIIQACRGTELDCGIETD
Chain of Caspase-3 (P42574 176-277 limits assumed): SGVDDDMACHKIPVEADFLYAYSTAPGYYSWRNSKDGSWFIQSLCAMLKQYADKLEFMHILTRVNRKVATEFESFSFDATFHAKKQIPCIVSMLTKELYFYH
Chain of Thymidylate synthase (Homo sapiens, UniProt P04818) (P04818 whole entry): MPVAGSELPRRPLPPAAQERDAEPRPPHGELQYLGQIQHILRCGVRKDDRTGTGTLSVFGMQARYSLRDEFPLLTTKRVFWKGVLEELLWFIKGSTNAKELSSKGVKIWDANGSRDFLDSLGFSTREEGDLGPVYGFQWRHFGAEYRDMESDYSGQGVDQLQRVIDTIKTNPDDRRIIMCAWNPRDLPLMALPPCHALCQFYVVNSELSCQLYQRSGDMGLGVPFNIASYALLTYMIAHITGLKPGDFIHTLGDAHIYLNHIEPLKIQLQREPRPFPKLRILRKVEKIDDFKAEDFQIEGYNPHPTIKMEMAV
Description for Carbonic anhydrase: Inhibitory concentration against carbonic anhydrase

COc1cc(C(=O)C(=O)N2CCCC[C@H]2C(=O)OCCCOc2ccc(C(=O)Nc3ccc(O)cc3)cc2)cc(OC)c1OC
pKd [1]: 7.72

CO/N=C/c1ccc(O)c(O)c1
pIC50 [2]: 4.39

Oc1ccc(-c2ccccc2)cc1
pKd (Stromelysin-1 [3]): 3.55

COCCNC(=O)c1cc2cc(Cl)ccc2[nH]1
pIC50 [4]: 4.90

O=C(Nc1ccc(O)cc1)c1ccc(O)cc1
pKd [1]: 4.00

O=C(Nc1cccc(C(F)(F)F)c1)c1csc(-c2ccncc2)n1
pKi [5]: 4.89

COc1ccc(-c2cc(C3CCN(C(=O)CNC(=O)[C@@H](CC(C)C)N=C(N)N)CC3)n(C)n2)c(Cl)c1Cl
pIC50 [6]: 5.52

O=C(O)/C=C/C=C/c1cccc(Oc2cc(Cl)cc(Cl)c2)c1
pIC50 (Human papillomavirus [7]): 5.00

O=C(Nc1ccccc1O)c1ccc(O)cc1
pKd [1]: 3.10

CC(=O)N1CCN(C(=O)/C=C/c2ccc(Sc3ccc4[nH]ccc4c3)c(Cl)c2)CC1
half-life [8]: 4.7 h

O=C1NC(=O)[C@@]2(N1)O[C@H](COP(=O)(O)O)[C@@H](O)[C@H]2O [PHOSPHOHYDANTOCIDIN]
pIC50 [9]: 6.17

C1=CC2N=C3CCCCC3=C(NCCCCCCCNc3c4c(nc5ccccc35)CCCC4)C2C=C1 (stereo not drawn)
pIC50 (Acetylcholinesterase [10]): 9.40

CCn1c2ccccc2c2cc(/C=N\OC)ccc21
pIC50 [2]: 4.40

Cc1ccc(S(=O)(=O)N2CCC[C@@H]2C(=O)O)cc1
pKi (Thymidylate synthase [11]): 2.96

O=C(NCCOCCOCCNC(=O)c1cc2cc(Cl)ccc2[nH]1)c1cc2cc(Cl)ccc2[nH]1
pIC50 [4]: 8.22

CN(C)CC/C=C(\c1ccc(Cl)cc1)c1ccc(CCCc2ccc(/C(=C\CCN(C)C)c3ccc(Cl)cc3)cc2)cc1
pIC50 (Bcl-2-like protein 1): 5.00

COC(=O)[C@@H]1CCCCN1C(=O)C(=O)c1cc(OC)c(OC)c(OC)c1
pKd [1]: 5.70

N=C(N)c1ccc2cccc(Nc3ncccn3)c2c1
Bioavailabiility [12]: Not orally available

CSc1nc(N)nc(N)n1
pKd [13]: 3.00

Nc1ccc2cccc(O)c2n1
pKi [14]: 4.25

NC(N)=Nc1nc(-c2ccc(CNc3cc4ccccc4[nH]3)s2)cs1
pKi (Adenosine deaminase): 5.92

NC(=O)CSCc1ccc(S(N)(=O)=O)cc1
IC50 (Carbonic anhydrase): 0.77 µM

NCc1nc2ccc(NCc3ccccc3OCc3ccccc3)cc2[nH]1
pIC50 [15]: 4.89

O=C(Nc1ccccc1)c1c(Nc2ccccc2)[nH]c(=O)[nH]c1=O
pKi [5]: 6.14

O=CN(O)[C@@H](CCCN1C(=O)N[C@@]2(O[C@H](COP(=O)(O)O)[C@@H](O)[C@H]2O)C1=O)C(=O)O
pIC50 [9]: 7.37

O=C(NCCCCN1CCOCC1)c1cc2ccccc2o1
pIC50 (Collagenase 3): 5.00 | pIC50 (Interstitial collagenase): < 5.00

Cc1cc(C)c(N(Cc2ccccc2)S(=O)(=O)c2ccc(OCCNC(=O)c3cc4ccccc4o3)cc2)c(C(=O)NO)c1
pIC50 (Interstitial collagenase): < 5.00

CC(=O)N[C@@H]1[C@@H](N)CC(C(=O)O)=C[C@H]1NCCCc1ccccc1
pIC50 [16]: 5.79

O=C(O)CCCc1ccc(Oc2ccccc2)cc1
pKd (Human papillomavirus [17]): 2.72

O=CN(O)CC(=O)O [HADACIDIN]
pIC50 [9]: 5.46

CN(C)CCC=C(c1ccc(Cl)cc1)c1ccc(Cl)cc1
pIC50 (Bcl-2-like protein 1): 3.74

c1ccc(NCCCCCCCNc2c3c(nc4ccccc24)CCCC3)cc1
pIC50 (Acetylcholinesterase [10]): 6.41

O=C(O)c1ccc(-c2cc(Cl)cc(Cl)c2)cc1
pIC50 (Human papillomavirus [7]): 3.82 | pKd (Human papillomavirus [17]): 4.22

Nc1ccc2cccc(Nc3ncccn3)c2n1
bioavailability [18]: 38%

CC(=O)N[C@H]1[C@H](N)C=C(C(=O)O)C[C@@H]1N
pIC50 [16]: 4.51

NCC[C@@H](NC(=O)c1ccc(-c2cccc(NC(=O)c3ccc4nc(O)c(O)nc4c3)c2)o1)C(=O)N1CCNCC1
pKd (Nucleic Acid): 5.19

CC[N+](C)(CC)CCC[n+]1c(-c2ccccc2)c2cc(N)ccc2c2ccc(N)cc21 [PROPIDIUM]
pKd (Acetylcholinesterase [19]): 5.96

O=C(O)c1ccc2nc(O)c(O)nc2c1
pKd (Nucleic Acid): < 4.00

CCn1c2ccccc2c2cc(/C=N\OCCO/N=C/c3ccc(O)c(O)c3)ccc21
pIC50 [2]: 7.19

O=C(O)CCNC(=O)[C@H]1CCCN1S(=O)(=O)c1ccc(C(=O)N[C@@H](CCC(=O)O)C(=O)O)cc1
pKi (Thymidylate synthase [20]): 6.48

CC(C)C[C@@H](NC(=N)N)C(=O)NCC(=O)N1CCC(c2cc(-c3ccc(OCc4ccc(C(=O)O)o4)c(Cl)c3Cl)nn2C)CC1
pIC50 [6]: 7.22

CNS(=O)(=O)c1ccc(O)c(C(=O)O)c1
pKi (Caspase-3): < 3.00

O=C(O)/C=C/C=C/c1ccc(Oc2ccccc2)cc1
pIC50 (Human papillomavirus [7]): 4.12 | pKd (Human papillomavirus [17]): 3.46

CCCNC(=O)c1ccc2nc(O)c(O)nc2c1
pKd (Nucleic Acid): < 4.00

Nc1nc(NC2Cc3ccccc3C2)nc(N2CCCCC2)n1
pKi [21]: 5.10

O=C(O)CC[C@H](NC(=O)c1ccc(S(=O)(=O)N2CCC[C@@H]2C(=O)O)cc1)C(=O)O
pKi (Thymidylate synthase [20]): 4.62

CCC(CC)N[C@@H]1C=C(C(=O)O)C[C@H](N)[C@H]1NC(C)=O
pIC50 [16]: 7.07

NS(=O)(=O)c1ccc(CSCc2ccc(C(=O)O)cc2)cc1
IC50 (Carbonic anhydrase): 0.084 µM

CONC(=O)c1c(OCCOc2ccc(-c3ccc(C#N)cc3)cc2)ccc2ccccc12
pIC50 (Stromelysin-1 [22]): 6.47

NS(=O)(=O)c1ccc(N/N=C2\C(=O)Nc3ccc(Cl)cc32)cc1 [GW280670X]
pIC50 [23]: 7.52

N#CCc1cccc(-c2ccc(O)cc2)c1
pKd (Stromelysin-1 [3]): 4.70

CN(C)C(=O)[C@H](O)[C@H](Cc1ccccc1)NC(=O)c1cc2cc(Cl)ccc2[nH]1
pIC50 [4]: 6.89

O=C(O)c1cc2ccccc2s1
pKd [24]: < 3.00

CC(=O)N1CCN(C(=O)/C=C/c2cccc([N+](=O)[O-])c2)CC1
pIC50 [25]: 4.10

NCC[C@@H](NC(=O)c1ccco1)C(=O)N1CCNCC1
pKd (Nucleic Acid): < 4.00
